This is an account of results in article PMC6095690, “Coalescing beneficial host and deleterious antiparasitic actions as an antischistosomal strategy” (eLife, 2018).

The test system of data set [1] is S. mansoni (mature infection in Swiss Webster mice). The data set can be described thus: curative efficacy against mature infection in mice (survival, worm burden, egg counts, organ weights). The note with it: for reduction in intestinal egg burden: ergotamine 60 mg/kg twice daily or PZQ 50 mg/kg, 42–49 days p.i.; for effect on hepatosplenomegaly: one week treatment starting at 42 days p.i.

For data set [2], the system named is immature S. mansoni (infection in mice). The experiment in a line: curative efficacy against immature infection in mice (dosing weeks 3-4 post infection). The conditions noted are these: dosing 3–4 weeks post infection, worm burden at 7 weeks; ERG 60 mg/kg, PZQ 50 mg/kg.
Data set [3] relates to liver signaling pathways. The experiment in a line: Ingenuity Pathway Analysis of transcripts differentially expressed in drug treated livers relative to control infections. Format: in vivo, mouse.
Data set [4] concerns human 5-HT2B receptor. Also noted: method as in Chan et al., 2017. The conditions noted are these: contracts host mesenteric vessels; ref Chan et al., 2017; cited from earlier work.
For data set [5], the target named is T1, Sm.5HTRL (Schistosoma mansoni, UniProt A0A173FEI8).
T1 sequence (A0A173FEI8 1-547): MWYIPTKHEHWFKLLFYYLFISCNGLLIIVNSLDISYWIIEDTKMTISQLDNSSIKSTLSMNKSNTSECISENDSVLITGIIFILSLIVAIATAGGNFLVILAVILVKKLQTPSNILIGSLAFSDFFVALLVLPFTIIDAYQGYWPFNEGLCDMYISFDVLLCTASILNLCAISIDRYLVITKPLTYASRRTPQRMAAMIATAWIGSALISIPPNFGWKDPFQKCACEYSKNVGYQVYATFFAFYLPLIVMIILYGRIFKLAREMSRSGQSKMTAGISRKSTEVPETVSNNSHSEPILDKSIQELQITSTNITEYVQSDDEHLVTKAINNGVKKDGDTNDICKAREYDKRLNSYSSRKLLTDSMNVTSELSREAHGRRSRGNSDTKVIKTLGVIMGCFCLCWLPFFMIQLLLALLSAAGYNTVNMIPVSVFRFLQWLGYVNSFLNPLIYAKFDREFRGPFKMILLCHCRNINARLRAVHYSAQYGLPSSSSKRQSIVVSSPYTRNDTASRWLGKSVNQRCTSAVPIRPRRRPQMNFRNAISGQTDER
For data set [6], the system named is forskolin evoked cAMP production in HEK293 cells lacking Sm.5HTRL. The data set can be described thus: counter-screen of antagonist hits: forskolin evoked cAMP production in parental reporter line. Type of data set: cell-based.
Data set [7] addresses T1, Sm.5HTRL. The data set can be described thus: cell-based. The conditions noted are these: HEK293.
In data set [8] the target is Sj.5HTR (Schistosoma japonicum, UniProt A0A346LTY2). The data set can be described thus: cell-based. The conditions noted are these: HEK293.
Chain of Sj.5HTR (A0A346LTY2 entry or part of it): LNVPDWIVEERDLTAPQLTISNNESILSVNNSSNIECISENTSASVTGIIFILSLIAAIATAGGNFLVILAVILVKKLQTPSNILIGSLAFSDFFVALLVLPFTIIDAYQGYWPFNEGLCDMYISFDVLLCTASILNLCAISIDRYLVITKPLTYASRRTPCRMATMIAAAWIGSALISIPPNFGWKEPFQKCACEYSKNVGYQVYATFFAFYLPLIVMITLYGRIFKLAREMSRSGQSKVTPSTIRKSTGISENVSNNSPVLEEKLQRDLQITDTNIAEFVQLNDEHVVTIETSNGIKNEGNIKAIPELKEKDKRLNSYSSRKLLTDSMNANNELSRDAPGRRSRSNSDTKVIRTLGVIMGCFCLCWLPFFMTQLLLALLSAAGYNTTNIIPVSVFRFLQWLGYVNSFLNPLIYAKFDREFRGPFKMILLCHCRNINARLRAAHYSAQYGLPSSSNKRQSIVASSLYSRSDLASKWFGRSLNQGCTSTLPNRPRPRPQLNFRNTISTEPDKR
The subject of data set [9] is adult S. mansoni male and female pairs. The data set can be described thus: egg laying assay of worm pairs cultured ex vivo. The conditions noted are these: 1 µM.
Data set [10] concerns adult S. mansoni parasites. The data set can be described thus: adult worm movement assay ex vivo. The conditions noted are these: Schistosoma mansoni; ex vivo, ± 95% confidence interval; read-out: EC50 for stimulation of adult schistosome movement. Also noted: species or system Schistosoma mansoni.
Data set [11] has as its system S. mansoni (mature infection in Swiss Webster mice). The experiment in a line: hepatic shift assay in infected mice. The note with it: intraperitoneal, sacrificed three hours later; dose not given.
In data set [12] the test system is liver of S. mansoni infected mice. The data set can be described thus: liver histology and immunohistochemistry of infected drug treated mice. The note with it: ergotamine 60 mg/kg.
Data set [13] addresses Sh.5HTR (Schistosoma haematobium, UniProt A0A922S615). Format: cell-based. The note with it: HEK293; maximal cAMP response relative to 5-HT.
Data set [14] deals with immature S. mansoni. The data set can be described thus: movement of immature worms harvested 4 weeks post infection, ex vivo. Details: species or system Schistosoma mansoni. The conditions noted are these: male worms 4 weeks post infection. The source says: Figure 6. […] Figure 6—figure supplement 1. […] Scale = 50 µm. [drawing 7]

As for `O=C(C1CCCCC1)N1CC(=O)N2CCc3ccccc3C2C1` (stereo not shown) [PZQ, praziquantel], the “lethality through 15 weeks” value in data set [1] (PZQ 50 mg/kg for one week from 42 days p.i.) is given as “no observed lethality”. Besides, in data set [1], the “reduction in intestinal egg burden” value was 99.9 ± 0.1%; the “effect on hepatosplenomegaly” value is “did not prevent spleen and liver enlargement”. Also, in data set [2], the “effect on immature infection” value was “lack of effect”. Also, the “effect on gene products associated with HSC activation” value in data set [3] was “little to no effect”.

On to `O=C(C1CCCCC1)N1CC(=O)N2CCc3ccccc3[C@@H]2C1` [R-PZQ], for which the “type of activity at human 5-HT2B receptor” value in data set [4] was “partial agonist”.

With `C[C@@H]1CC[C@@]2(OC1)O[C@H]1[C@@H](O)[C@H]3[C@@H]4CC[C@H]5C[C@@H](O[C@@H]6O[C@H](CO)[C@H](O[C@@H]7O[C@H](CO)C(O)[C@H](O[C@@H]8OC[C@@H](O)[C@H](O)[C@H]8O)[C@H]7O[C@@H]7O[C@H](CO)[C@H](O)[C@H](O[C@@H]8O[C@H](CO)[C@@H](O)[C@H](O)[C@H]8O)[C@H]7O)[C@H](O)[C@H]6O)[C@H](O)C[C@]5(C)[C@H]4CC[C@]3(C)[C@H]1[C@@H]2C` (stereo partly shown) [ST069321], the “(+) Sm.5HTR 5-HT response (% of DMSO)” value in data set [5] was 0.1068 % of DMSO. Also, the “(-) Sm.5HTR Forskolin response (% of DMSO)” value in data set [6] is reported as 0.15 % of DMSO.

Usually Emax stands for the size of the effect at its maximum, as opposed to the concentration needed. The EC50 is the concentration that produces a half-maximal response. With `CN1C[C@H](C(=O)N[C@]2(C)O[C@@]3(O)[C@@H]4CCCN4C(=O)[C@H](Cc4ccccc4)N3C2=O)C=C2c3cccc4[nH]cc(c34)C[C@H]21` [ergotamine, Ergotamine], the Emax is 95 ± 4% in data set [7], 114 ± 3% in data set [8] and 96 ± 5% in data set [13]. Besides, in [9], the “morphology of eggs laid by treated worms” value was “often small and deformed”. In data set [5], the “type of activity at schistosome 5-HTRs” value is on record as “full agonists”. The EC50 in data set [10] is 0.0978 ± 0.0316 µM. The compound also returned a worm burden in data set [1] (60 mg/kg twice daily 42–49 days p.i., control 28 ± 8) of 9 ± 6 worm pairs per mouse. Also, the “reduction of worm burden” value in data set [1] (60 mg/kg twice daily 42–49 days p.i., p<0.002) is ~ 65%. Also, the “reduction of infection-promoted increase in spleen mass” value in [1] (60 mg/kg twice daily 42–49 days p.i., relative to vehicle treated controls) came out at 55.8 ± 14.0%. Also, the “reduction in intestinal egg burden” value in [1] was 96.3 ± 1.2%. Besides, the “effect on hepatosplenomegaly” value in data set [1] is reported as “prevented hepatosplenomegaly”. In addition, in [11], the “percentage of worms in the liver” value turned out to be 75.1 ± 16.9%. Further, the “granuloma formation and fibrosis in liver sections” value in data set [12] was “decreased granuloma formation and fibrosis”. For the same compound, the “hepatic microvesicular steatosis / microvascular damage” value in [12] (H and E staining) is given as “not observed”. The “effect on movement of juvenile worms” value in data set [14] was “stimulated movement of juvenile worms”. Further, the “effect on immature infection” value in [2] is on record as “did not resolve infections”. In data set [3], the “effect on gene products associated with HSC activation” value was “down-regulated gene products associated with HSC activation”.
